For 47 compounds, Ki results are on record in patent publication US8604061B2, “2-aminooxazolines as TAAR1 ligands” (Hoffmann-La Roche Inc., priority 2007, dated 2013).

Read-outs that look alike come from different tables or passages of the source. Where only a bound is given, the exact number is not on record here.

The assay addresses TAAR1 (Mus musculus, UniProt Q923Y8). Briefly: TAAR1 radioligand binding, membranes of stably transfected HEK293 cells (mouse). A digest of the protocol:
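Competition binding on membranes from HEK293 cells stably expressing the TAAR1 species ortholog, in HEPES-NaOH pH 7.0 with 10 mM MgCl2 and 2 mM CaCl2, 30 min at 4° C with [3H]-rac-2-(1,2,3,4-tetrahydro-1-naphthyl)-2-imidazoline. Competitors 10 pM–30 μM, duplicates; non-specific binding with 10 μM unlabelled ligand; filtration and scintillation counting.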

[1] abbreviates: mouse/rat, cell not marked 'rat', radioligand [3H]-rac-2-(1,2,3,4-tetrahydro-1-naphthyl)-2-imidazoline, 4° C., read-out: Ki (μM) mouse/rat.

In turn, `NC1=NC(c2cccc(Cl)c2F)CO1` (racemic) [Example 18, (RS)-4-(3-Chloro-2-fluoro-phenyl)-4,5-dihydro-oxazol-2-ylamine] yielded a Ki of 0.0022 µM.

`Cc1cc(F)ccc1[C@H]1COC(N)=N1` [Example 348, (+)-(S)-4-(4-Fluoro-2-methyl-phenyl)-4,5-dihydro-oxazol-2-ylamine]: the Ki under setting [1] is 0.0036 µM.

With `COc1ccc(C2COC(N)=N2)c(C(F)(F)F)c1` (racemic) [Example 229, (RS)-4-(4-Methoxy-2-trifluoromethyl-phenyl)-4,5-dihydro-oxazol-2-ylamine], the Ki is below 3 µM.

As for `CCc1cc(Cl)ccc1[C@H]1COC(N)=N1` [Example 364, (+)-(S)-4-(4-Chloro-2-ethyl-phenyl)-4,5-dihydro-oxazol-2-ylamine], under setting [1], the Ki worked out at 0.002 µM.

As for `NC1=N[C@@H](c2cccc(C(F)(F)F)c2)CO1` [Example 153, (S)-4-(3-Trifluoromethyl-phenyl)-4,5-dihydro-oxazol-2-ylamine], the Ki under setting [1] was determined as 0.0083 µM.

On to `NC1=NC(c2ccc(Br)cc2)CO1` (racemic) [Example 20, (RS)-4-(4-Bromo-phenyl)-4,5-dihydro-oxazol-2-ylamine], for which the Ki was 0.0009 µM.

For the compound `NC1=N[C@@H](CCc2cc(C(F)(F)F)ccc2F)CO1` [Example 156, (S)-4-[2-(2-Fluoro-5-trifluoromethyl-phenyl)-ethyl]-4,5-dihydro-oxazol-2-ylamine], the Ki under setting [1] amounted to 0.0064 µM.

Consider `NC1=N[C@@H](c2ccc3ccccc3c2)CO1` [Example 103, (S)-4-Naphthalen-2-yl-4,5-dihydro-oxazol-2-ylamine], for which the Ki under setting [1] worked out at 0.0004 µM.

Consider `C[C@]1(c2cc(F)c(F)c(F)c2)COC(N)=N1` [Example 306, (S)-4-Methyl-4-(3,4,5-trifluoro-phenyl)-4,5-dihydro-oxazol-2-ylamine], for which the Ki under setting [1] was 0.0027 µM.

As to `NC1=N[C@@H](CCc2ccc(F)c(OC(F)(F)F)c2)CO1` [Example 146, (S)-4-[2-(4-Fluoro-3-trifluoromethoxy-phenyl)-ethyl]-4,5-dihydro-oxazol-2-ylamine], the Ki under setting [1] was determined as 0.0041 µM.

Regarding `C[C@H](C[C@H]1COC(N)=N1)c1ccccc1` [82 (S, R), (S)-4-((R)-2-Phenyl-propyl)-4,5-dihydro-oxazol-2-ylamine], under setting [1], the Ki turned out to be 0.0016 µM.

Consider `CCC(C[C@H]1COC(N)=N1)c1ccc(F)cc1` (stereo partly drawn) [Example 210, (S)-4-[2-(4-Fluoro-phenyl)-butyl]-4,5-dihydro-oxazol-2-ylamine], for which the Ki under setting [1] turned out to be 0.0014 µM.

`C[C@]1(c2ccc(Cl)c(F)c2)COC(N)=N1` [Example 236, (S)-4-(4-Chloro-3-fluoro-phenyl)-4-methyl-4,5-dihydro-oxazol-2-ylamine]: under setting [1], the Ki came to 0.002 µM.

For `NC1=N[C@@H](COc2ccc(F)cc2F)CO1` [Example 353, (S)-4-(2,4-Difluoro-phenoxymethyl)-4,5-dihydro-oxazol-2-ylamine], the Ki under setting [1] was found to be 0.0014 µM.

On to `NC1=NC(c2ccc(Cl)cc2C2CC2)CO1` (racemic) [Example 359, (RS)-4-(4-Chloro-2-cyclopropyl-phenyl)-4,5-dihydro-oxazol-2-ylamine], for which the Ki stood at 0.0021 µM.

The compound `Cc1cc(F)ccc1C1COC(N)=N1` (racemic) [Example 337, (RS)-4-(4-Fluoro-2-methyl-phenyl)-4,5-dihydro-oxazol-2-ylamine] displayed a Ki of 0.0034 µM.

In the case of `NC1=N[C@@H](c2ccc(F)c(F)c2F)CO1` [Example 301, (+)-(S)-4-(2,3,4-Trifluoro-phenyl)-4,5-dihydro-oxazol-2-ylamine], the Ki under setting [1] was 0.0023 µM.

As to `C[C@]1(CCc2ccccc2Cl)COC(N)=N1` [Example 228, (S)-4-[2-(2-Chloro-phenyl)-ethyl]-4-methyl-4,5-dihydro-oxazol-2-ylamine], under setting [1], the Ki amounted to 0.004 µM.

`CC1(c2cc(F)c(F)c(F)c2)COC(N)=N1` (racemic) [Example 273, (RS)-4-Methyl-4-(3,4,5-trifluoro-phenyl)-4,5-dihydro-oxazol-2-ylamine]: the Ki under setting [1] amounted to 0.0095 µM.

On to `NC1=N[C@@H](c2cc(F)ccc2F)CO1` [Example 101, (S)-4-(2,5-Difluoro-phenyl)-4,5-dihydro-oxazol-2-ylamine], for which the Ki under setting [1] is 0.0034 µM.

Regarding `C[C@]1(CCc2ccc(Cl)cc2)COC(N)=N1` [Example 244, (S)-4-[2-(4-Chloro-phenyl)-ethyl]-4-methyl-4,5-dihydro-oxazol-2-ylamine], the Ki under setting [1] was found to be 0.0057 µM.

Consider `NC1=N[C@@H](CCc2cc(F)cc(F)c2)CO1` [Example 113, (S)-4-[2-(3,5-Difluoro-phenyl)-ethyl]-4,5-dihydro-oxazol-2-ylamine], for which, under setting [1], the Ki is 0.0016 µM.

In the case of `NC1=N[C@@H](c2cc(F)cc(F)c2)CO1` [Example 176, (S)-4-(3,5-Difluoro-phenyl)-4,5-dihydro-oxazol-2-ylamine], the Ki under setting [1] was determined as 0.002 µM.

Consider `NC1=N[C@@H](CC2(c3ccccc3)CC2)CO1` [Example 342, (S)-4-(1-Phenyl-cyclopropylmethyl)-4,5-dihydro-oxazol-2-ylamine], for which the Ki under setting [1] was 0.0045 µM.

Compound `Cc1cc(C2(C)COC(N)=N2)ccc1Cl` (racemic) [Example 263, (RS)-4-(4-Chloro-3-methyl-phenyl)-4-methyl-4,5-dihydro-oxazol-2-ylamine] had a Ki of 0.0023 µM.

In turn, `NC1=NC(c2ccc(F)cc2F)CO1` (racemic) [Example 7, (RS)-4-(2,4-Difluoro-phenyl)-4,5-dihydro-oxazol-2-ylamine] yielded a Ki of 0.0083 µM.

`C[C@]1(CCc2ccc(Cl)cc2Cl)COC(N)=N1` [Example 304, (S)-4-[2-(2,4-Dichloro-phenyl)-ethyl]-4-methyl-4,5-dihydro-oxazol-2-ylamine]: the Ki under setting [1] came out at 0.0033 µM.

As for `NC1=N[C@@H](CCc2ccc(OC(F)(F)F)c(Cl)c2)CO1` [Example 150, (S)-4-[2-(3-Chloro-4-trifluoromethoxy-phenyl)-ethyl]-4,5-dihydro-oxazol-2-ylamine], the Ki under setting [1] worked out at 0.0009 µM.

On to `C[C@]1(CCc2ccccc2)COC(N)=N1` [Example 81 (S), (S)-4-Methyl-4-phenethyl-4,5-dihydro-oxazol-2-ylamine], for which, under setting [1], the Ki came out at 0.0064 µM.

As to `CCC(C[C@H]1COC(N)=N1)c1cc(F)cc(Cl)c1` (stereo partly drawn) [Example 357, (S)-4-[2-(3-Chloro-5-fluoro-phenyl)-butyl]-4,5-dihydro-oxazol-2-ylamine], the Ki under setting [1] was found to be 0.0068 µM.

As to `CC1(c2ccc(Cl)cc2Cl)COC(N)=N1` (racemic) [Example 294, (RS)-4-(2,4-Dichloro-phenyl)-4-methyl-4,5-dihydro-oxazol-2-ylamine], under setting [1], the Ki stood at 0.0038 µM.

For `Cc1ccc([C@@]2(C)COC(N)=N2)cc1` [Example 161, (S)-4-Methyl-4-p-tolyl-4,5-dihydro-oxazol-2-ylamine], the Ki under setting [1] amounted to 0.0062 µM.

For `CCC(C[C@H]1COC(N)=N1)c1cccc(Cl)c1F` (stereo partly drawn) [Example 355, (S)-4-[2-(3-Chloro-2-fluoro-phenyl)-butyl]-4,5-dihydro-oxazol-2-ylamine], under setting [1], the Ki worked out at 0.0043 µM.

Take `NC1=N[C@@H](c2cc(Cl)ccc2Cl)CO1` [Example 298, (+)-(S)-4-(2,5-Dichloro-phenyl)-4,5-dihydro-oxazol-2-ylamine]: the Ki under setting [1] is 0.0004 µM.

For `NC1=N[C@@H](CCc2cccc(Br)c2)CO1` [Example 143, (S)-4-[2-(3-Bromo-phenyl)-ethyl]-4,5-dihydro-oxazol-2-ylamine], the Ki under setting [1] stood at 0.0007 µM.

For `CC1(CCc2ccccc2)COC(N)=N1` (racemic) [Example 78, (RS)-4-Methyl-4-phenethyl-4,5-dihydro-oxazol-2-ylamine], under setting [1], the Ki came to 0.0064 µM.

In the case of `C[C@]1(c2ccc(C(F)(F)F)cc2F)COC(N)=N1` [Example 215, (S)-4-(2-Fluoro-4-trifluoromethyl-phenyl)-4-methyl-4,5-dihydro-oxazol-2-ylamine], under setting [1], the Ki was determined as 0.0024 µM.

`Cc1ccc(F)cc1C1COC(N)=N1` (racemic) [Example 250, (RS)-4-(5-Fluoro-2-methyl-phenyl)-4,5-dihydro-oxazol-2-ylamine] returned a Ki of 0.0022 µM.

Consider `CC(C[C@H]1COC(N)=N1)c1cc(F)cc(F)c1` (stereo partly drawn) [Example 202, (S)-4-[2-(3,5-Difluoro-phenyl)-propyl]-4,5-dihydro-oxazol-2-ylamine], for which the Ki under setting [1] worked out at 0.0017 µM.

As to `NC1=N[C@@H](CCc2cc(F)cc(C(F)(F)F)c2)CO1` [Example 159, (S)-4-[2-(3-Fluoro-5-trifluoromethyl-phenyl)-ethyl]-4,5-dihydro-oxazol-2-ylamine], under setting [1], the Ki came out at 0.001 µM.

`NC1=N[C@@H](c2cc(F)cc(Cl)c2)CO1` [Example 178, (S)-4-(3-Chloro-5-fluoro-phenyl)-4,5-dihydro-oxazol-2-ylamine]: under setting [1], the Ki is 0.0004 µM.

Take `CC(C[C@H]1COC(N)=N1)c1ccc(C(F)(F)F)cc1` (stereo partly drawn) [Example 165, (S)-4-[2-(4-Trifluoromethyl-phenyl)-propyl]-4,5-dihydro-oxazol-2-ylamine]: the Ki under setting [1] amounted to 0.0012 µM.

`NC1=N[C@@H](c2ccc(Cl)c(Cl)c2)CO1` [Example 91, (S)-4-(3,4-Dichloro-phenyl)-4,5-dihydro-oxazol-2-ylamine]: the Ki under setting [1] came to 0.0006 µM.

In the case of `CC1(c2ccc(F)c(F)c2F)COC(N)=N1` (racemic) [Example 269, (RS)-4-Methyl-4-(2,3,4-trifluoro-phenyl)-4,5-dihydro-oxazol-2-ylamine], the Ki under setting [1] amounted to 0.0083 µM.

As to `NC1=N[C@@H](CCc2ccc(OC(F)(F)F)c(F)c2)CO1` [Example 145, (S)-4-[2-(3-Fluoro-4-trifluoromethoxy-phenyl)-ethyl]-4,5-dihydro-oxazol-2-ylamine], under setting [1], the Ki was 0.0026 µM.

The compound `NC1=NC(c2cc(Cl)ccc2F)CO1` (racemic) [Example 19, (RS)-4-(5-Chloro-2-fluoro-phenyl)-4,5-dihydro-oxazol-2-ylamine] registered a Ki of 0.0018 µM.

In the case of `C[C@]1(c2cc(F)ccc2F)COC(N)=N1` [Example 187, (S)-4-(2,5-Difluoro-phenyl)-4-methyl-4,5-dihydro-oxazol-2-ylamine], under setting [1], the Ki worked out at 0.0021 µM.
